What was measured:
B. subtilis 168 [1] = assay: fitness (endpoint OD595 vs no drug) (fraction); higher = more growth
Outline: (§1)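 Each well of a 384-well plate received 30 µl of culture at OD595 0.01, or 55 µl for S. pneumoniae. TSB, LB Lennox or CY served as media at 37 °C. OD595 was taken every 30 min for 14 h and corrected by subtracting the first reading. Fitness is the optical density at stationary-phase entry divided by the robust mean of no-drug controls, capped at 1.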

S. aureus DSM 20231 [2] = assay: as above
Outline: as §1

B. subtilis 168 [3] = assay: Bliss interaction score (quartile over a dose matrix) (fitness difference); higher = more antagonism (negative = synergy)
Outline: (§2)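 Fitness is OD595 at stationary-phase entry relative to the plate's robust no-drug mean, capped at 1. Single-drug fitness was inferred from combinations. The Bliss score is observed minus product-expected fitness, summarised by quartiles over technical, biological and donor/recipient replicates.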

S. pneumoniae D39V [4] = assay: as above
Outline: as §2

S. aureus DSM 20231 [5] = assay: as above
Outline: as §2

S. aureus Newman [6] = assay: as above
Outline: as §2

S. pneumoniae D39V [7] = assay: fitness (endpoint OD595 vs no drug) (fraction); higher = more growth
Outline: as §1

S. aureus Newman [8] = assay: as above
Outline: as §1
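For Bliss interaction score (quartile over a dose matrix) in this document: first quartile when negative (synergy) and third quartile when positive (antagonism).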

CCN(CC)CCOC(=O)c1ccc(N)cc1 [Procaine] + COc1cc(Cc2cnc(N)nc2N)cc(OC)c1OC [Trimethoprim]
fitness, B. subtilis 168 [1], one replicate
Conditions	partner 0.1 µg/mL	partner 0.125 µg/mL	partner 0.2 µg/mL	partner 0.4 µg/mL	partner 1 µg/mL	partner 2 µg/mL
first compound 85.5 µg/mL	0.877	0.771	0.722	0.555	0.393	0.277
first compound 171 µg/mL	0.836	0.775	0.783	0.544	0.444	0.295
first compound 342 µg/mL	0.83	0.742	0.832	0.555	0.37	0.383

fitness
Conditions	first compound 85.5 µg/mL	first compound 171 µg/mL	first compound 342 µg/mL
B. subtilis 168 [1], partner 0.25 µg/mL	0.704	0.688	0.69
B. subtilis 168 [1], partner 0.5 µg/mL	0.531	0.562	0.498
S. aureus DSM 20231 [2], partner 0.125 µg/mL	0.669	0.744	0.709
S. aureus DSM 20231 [2], partner 0.25 µg/mL	0.565	0.607	0.613
S. aureus DSM 20231 [2], partner 0.5 µg/mL	0.118	0.123	0.144
S. aureus DSM 20231 [2], partner 1 µg/mL	0.0274	0.0353	0.021

Conditions	Bliss interaction score
B. subtilis 168 [3]	0.0837
S. aureus DSM 20231 [5]	-0.0543
S. aureus Newman [6]	0.0842
S. pneumoniae D39V [4]	0.0954

CO/N=C(\C(=O)N[C@@H]1C(=O)N2C(C(=O)[O-])=C(C[N+]3(C)CCCC3)CS[C@H]12)c1csc(N)n1 [Cefepime] + C/C(=C\C(=O)OCCCCCCCCC(=O)O)C[C@@H]1OC[C@H](C[C@@H]2O[C@H]2[C@@H](C)[C@H](C)O)[C@@H](O)[C@H]1O [Pseudomonic acid]
fitness, S. pneumoniae D39V [7]
Conditions	first compound 0.007 µg/mL	first compound 0.0078 µg/mL	first compound 0.014 µg/mL	first compound 0.0155 µg/mL	first compound 0.028 µg/mL	first compound 0.031 µg/mL
partner 0.03 µg/mL	≥ 1	0.93	≥ 1	0.945	≥ 1	0.747
partner 0.06 µg/mL	0.924	0.814	0.976	0.796	0.968	0.631
partner 0.12 µg/mL	0.583	0.578	0.631	0.56	0.568	0.382

fitness, S. aureus Newman [8], one replicate
Conditions	first compound 0.125 µg/mL	first compound 0.25 µg/mL	first compound 0.5 µg/mL
partner 0.0313 µg/mL	0.0486	0.044	0.0558
partner 0.0625 µg/mL	0.0381	0.0306	0.0329
partner 0.125 µg/mL	0.0329	0.0557	0.0514

Conditions	Bliss interaction score
B. subtilis 168 [3]	0.0521
S. aureus DSM 20231 [5]	0.0141
S. aureus Newman [6]	0.0093
S. pneumoniae D39V [4]	0.0923

CC1(C)S[C@@H]2[C@H](NC(=O)[C@H](N)c3ccc(O)cc3)C(=O)N2[C@H]1C(=O)O [Amoxicillin] + CN(C)c1cc(NC(=O)CNC(C)(C)C)c(O)c2c1C[C@H]1C[C@H]3[C@H](N(C)C)C(O)=C(C(N)=O)C(=O)[C@@]3(O)C(O)=C1C2=O [Tigecycline]
fitness, S. pneumoniae D39V [7], one replicate
Conditions	partner 0.325 µg/mL	partner 0.65 µg/mL	partner 1.3 µg/mL
first compound 0.0008 µg/mL	0.969	–	–
first compound 0.006 µg/mL	0.386	0.449	0.458

Conditions	fitness
S. aureus Newman [8], first compound 0.0625 µg/mL, partner 0.039 µg/mL	0.892
S. aureus Newman [8], first compound 0.0625 µg/mL, partner 0.078 µg/mL	0.903
S. aureus Newman [8], first compound 0.0625 µg/mL, partner 0.156 µg/mL	0.884
S. aureus Newman [8], first compound 0.125 µg/mL, partner 0.039 µg/mL	0.875
S. aureus Newman [8], first compound 0.125 µg/mL, partner 0.078 µg/mL	0.922
S. aureus Newman [8], first compound 0.125 µg/mL, partner 0.156 µg/mL	0.862
S. aureus Newman [8], first compound 0.25 µg/mL, partner 0.039 µg/mL	0.799
S. aureus Newman [8], first compound 0.25 µg/mL, partner 0.078 µg/mL	0.867
S. aureus Newman [8], first compound 0.25 µg/mL, partner 0.156 µg/mL	0.817
S. pneumoniae D39V [7], first compound 0.0008 µg/mL, partner 0.65 µg/mL	0.928
S. pneumoniae D39V [7], first compound 0.0008 µg/mL, partner 1.3 µg/mL	≥ 1
S. pneumoniae D39V [7], first compound 0.0008 µg/mL, partner 2.6 µg/mL	0.968
S. pneumoniae D39V [7], first compound 0.0015 µg/mL, partner 0.325 µg/mL	0.941
S. pneumoniae D39V [7], first compound 0.0015 µg/mL, partner 0.65 µg/mL	0.942
S. pneumoniae D39V [7], first compound 0.0015 µg/mL, partner 1.3 µg/mL	0.994
S. pneumoniae D39V [7], first compound 0.0015 µg/mL, partner 2.6 µg/mL	0.956
S. pneumoniae D39V [7], first compound 0.003 µg/mL, partner 0.325 µg/mL	0.904
S. pneumoniae D39V [7], first compound 0.003 µg/mL, partner 0.65 µg/mL	0.921
S. pneumoniae D39V [7], first compound 0.003 µg/mL, partner 1.3 µg/mL	0.944
S. pneumoniae D39V [7], first compound 0.003 µg/mL, partner 2.6 µg/mL	0.877

Conditions	Bliss interaction score
B. subtilis 168 [3]	-0.0604
S. aureus DSM 20231 [5]	-0.0322
S. aureus Newman [6]	0.0642
S. pneumoniae D39V [4]	0.0424

CO/N=C(\C(=O)N[C@@H]1C(=O)N2C(C(=O)[O-])=C(C[N+]3(C)CCCC3)CS[C@H]12)c1csc(N)n1 [Cefepime] + CN(C)c1cc(NC(=O)CNC(C)(C)C)c(O)c2c1C[C@H]1C[C@H]3[C@H](N(C)C)C(O)=C(C(N)=O)C(=O)[C@@]3(O)C(O)=C1C2=O [Tigecycline]
Conditions	fitness
S. aureus Newman [8], first compound 0.125 µg/mL, partner 0.039 µg/mL	0.905
S. aureus Newman [8], first compound 0.125 µg/mL, partner 0.078 µg/mL	0.92
S. aureus Newman [8], first compound 0.125 µg/mL, partner 0.156 µg/mL	0.882
S. aureus Newman [8], first compound 0.25 µg/mL, partner 0.039 µg/mL	0.837
S. aureus Newman [8], first compound 0.25 µg/mL, partner 0.078 µg/mL	0.838
S. aureus Newman [8], first compound 0.25 µg/mL, partner 0.156 µg/mL	0.862
S. aureus Newman [8], first compound 0.5 µg/mL, partner 0.039 µg/mL	0.72
S. aureus Newman [8], first compound 0.5 µg/mL, partner 0.078 µg/mL	0.763
S. aureus Newman [8], first compound 0.5 µg/mL, partner 0.156 µg/mL	0.798
S. pneumoniae D39V [7], first compound 0.007 µg/mL, partner 0.325 µg/mL	0.996
S. pneumoniae D39V [7], first compound 0.007 µg/mL, partner 0.65 µg/mL	0.964
S. pneumoniae D39V [7], first compound 0.007 µg/mL, partner 1.3 µg/mL	0.955
S. pneumoniae D39V [7], first compound 0.0078 µg/mL, partner 0.65 µg/mL	0.963
S. pneumoniae D39V [7], first compound 0.0078 µg/mL, partner 1.3 µg/mL	0.943
S. pneumoniae D39V [7], first compound 0.0078 µg/mL, partner 2.6 µg/mL	0.918
S. pneumoniae D39V [7], first compound 0.014 µg/mL, partner 0.325 µg/mL	≥ 1
S. pneumoniae D39V [7], first compound 0.014 µg/mL, partner 0.65 µg/mL	0.983
S. pneumoniae D39V [7], first compound 0.014 µg/mL, partner 1.3 µg/mL	0.99
S. pneumoniae D39V [7], first compound 0.0155 µg/mL, partner 0.65 µg/mL	0.91
S. pneumoniae D39V [7], first compound 0.0155 µg/mL, partner 1.3 µg/mL	0.935
S. pneumoniae D39V [7], first compound 0.0155 µg/mL, partner 2.6 µg/mL	0.883
S. pneumoniae D39V [7], first compound 0.028 µg/mL, partner 0.325 µg/mL	0.951
S. pneumoniae D39V [7], first compound 0.028 µg/mL, partner 0.65 µg/mL	0.877
S. pneumoniae D39V [7], first compound 0.028 µg/mL, partner 1.3 µg/mL	0.865
S. pneumoniae D39V [7], first compound 0.031 µg/mL, partner 0.65 µg/mL	0.543
S. pneumoniae D39V [7], first compound 0.031 µg/mL, partner 1.3 µg/mL	0.698
S. pneumoniae D39V [7], first compound 0.031 µg/mL, partner 2.6 µg/mL	0.684

Conditions	Bliss interaction score
B. subtilis 168 [3]	0.115
S. aureus DSM 20231 [5]	0.0417
S. aureus Newman [6]	-0.0743
S. pneumoniae D39V [4]	0.0368
